Reference: patent US20140088192A1, “SUBCUTANEOUSLY INFUSIBLE LEVODOPA PRODRUG COMPOSITIONS AND METHODS OF INFUSION” (SynAgile Corporation, priority 2010, published 2014)

Legend:
[1] = pH change of LDEE.HCl solutions on holding; type: physicochemical; settings: for pH of about 0.95M LDEE•HCl Solution / pH of about 0.48M LDEE•HCl Solution: 40° C.; for pH: about 2.7 M
Procedure: An about 2.6 M LDEE.HCl pH 2.1 aqueous solution was prepared by dissolving 1.506 g LDEE in 1.3 mL of aqueous 5M HCl and adjusting the pH by adding 0.24 μL of 1 M HCl. […] After 24 hours, the pH was 2.0.
To determine whether hydrolysis of subcutaneously infusible solutions of 0.95 M and 0.48 M LDEE.HCl concentrations excessively lowers their pH or drives their LD concentration beyond the saturation point where LD could precipitate, their starting pH of less <3 adjusted by adding an about 1.5 M trisodium citrate solution, were kept at 40° C. for 24 hrs.

volunteer = test: Intramuscular / subcutaneous infusion of LDEE.HCl in human volunteers, local tolerability; type: in vivo; settings: s.c. abdomen, 0.24 mL of 2.3 M pH 4.5 over about 90 min in 8 boluses
[2] = Precipitation of LD from / clarity of LDEE solutions on holding; settings: for appearance of infused solution after storage: 2.3 M
Procedure: 150 mg of LDEE was dissolved in 3 mL of physiological saline (0.90% weight/volume of NaCl/water) at about 23° C., then at about 37° C. an additional amount of 22 mg of LDEE was added for a total LDEE concentration of about 57.3 mg/mL or about 0.25M.
At the ambient temperature of about 23° C., 226 mg of LDEE was dissolved in 1 mL of 1 M HCl. To the formed aqueous LDEE.HCl solution an additional amount of about 184 mg LDEE was added, followed by about 0.1 mL deionized water.
At the ambient temperature of about 23° C., about 113 mg of LDEE was dissolved in 1 mL of 1 M HCl. To the formed aqueous LDEE.HCl solution an additional amount of about 87 mg LDEE was added, followed by about 0.1 mL distilled water.
At the ambient temperature of about 23° C., about 226 mg of LDEE was dissolved in 1 mL of 1 M acetic acid. To the formed aqueous LDEE acetate salt solution an additional amount of about 168 mg LDEE was added. […] The pH of the resulting suspension was about 7.01 at about 26.4° C.
1.7 g of LDEE (7.5 millimoles) was dissolved in 1.405 mL of aqueous 5M HCl, then enough trisodium citrate was added to increase the pH to 5.5.
After flushing with nitrogen, the solution was kept for 7 days at 23±2° C. in a vial sealed with a grey elastomeric, substantially oxygen impermeable septum.

[3] = Achievable concentration and density of concentrated LDEE salt solutions
Procedure: The pH was adjusted to 4.60 by adding 160 mg of sodium acetate.

[4] = Estimated / projected shelf life and operational life (time to LD saturation); settings: for storage time without LD precipitation: 2.5±0.5 M aqueous; for time remaining precipitate free: after 18 months refrigerated storage
Description: To minimize hydrolysis and LD precipitation, the LDE salt can be stored in its dry solid form, and dissolved in water or in an aqueous solution prior to use. Alternatively and preferably, the LDE salt can be dissolved, and stored as an aqueous solution at a pH and at a temperature where the rate of hydrolysis is slow. […] The operational life, meaning the life of the infused solution, is similarly pH dependent. The pH of a subcutaneously infused solution can be generally greater than about 4.0. […] To extend the shelf life, the solution may be optionally stored at a temperature below about 25° C., for example it may be refrigerated at about 5±3° C.
After flushing with nitrogen, the solution was kept for 7 days at 23±2° C. in a vial sealed with a grey elastomeric, substantially oxygen impermeable septum. […] An operational life of 4 days suffices for infusion.
After flushing with nitrogen, the solution was kept in a vial sealed with a grey, elastomeric oxygen impermeable septum.
After flushing with nitrogen, the solution was kept in a vial sealed with a grey elastomeric, oxygen impermeable septum.

With `CCOC(=O)[C@@H](N)Cc1ccc(O)c(O)c1.Cl` [LDEE.HCl, LDEE Hydrochloride] the “pH of about 0.95M LDEE•HCl Solution” value ([1]; 0 h, starting pH 5.6) was 5.6, the “pH of about 0.48M LDEE•HCl Solution” value ([1]; 0 h, starting pH 5.61) was 5.61 and the “pH of about 0.48M LDEE•HCl Solution” value ([1]; 2 h, starting pH 4.19) was 4.43. For the same molecule, the “pH of about 0.95M LDEE•HCl Solution” value ([1]; 2 h, starting pH 4.2) was 4.19, the “pH of about 0.95M LDEE•HCl Solution” value ([1]; 2 h, starting pH 4.4) was 4.38 and the “pH of about 0.48M LDEE•HCl Solution” value ([1]; 2 h, starting pH 4.45) was 4.58. The “pH of about 0.48M LDEE•HCl Solution” value ([1]; 2 h, starting pH 4.59) was 4.68, the “pH of about 0.95M LDEE•HCl Solution” value ([1]; 2 h, starting pH 4.6) was 4.61 and the “pH of about 0.48M LDEE•HCl Solution” value ([1]; 2 h, starting pH 4.78) was 4.85. For the same molecule, the “pH of about 0.95M LDEE•HCl Solution” value ([1]; 2 h, starting pH 4.82) was 4.74, the “pH of about 0.48M LDEE•HCl Solution” value ([1]; 2 h, starting pH 5.01) was 5.01 and the “pH of about 0.95M LDEE•HCl Solution” value ([1]; 2 h, starting pH 5.01) was 5.01. For the same molecule, the “pH of about 0.95M LDEE•HCl Solution” value ([1]; 2 h, starting pH 5.3) was 5.34, the “pH of about 0.48M LDEE•HCl Solution” value ([1]; 2 h, starting pH 5.31) was 5.42 and the “pH of about 0.95M LDEE•HCl Solution” value ([1]; 2 h, starting pH 5.6) was 5.68. For the same molecule, the “pH of about 0.48M LDEE•HCl Solution” value ([1]; 2 h, starting pH 5.61) was 5.65, the “pH of about 0.48M LDEE•HCl Solution” value ([1]; 6 h, starting pH 4.19) was 4.34 and the “pH of about 0.95M LDEE•HCl Solution” value ([1]; 6 h, starting pH 4.2) was 4.02. For the same molecule, the “pH of about 0.95M LDEE•HCl Solution” value ([1]; 6 h, starting pH 4.4) was 4.28, the “pH of about 0.48M LDEE•HCl Solution” value ([1]; 6 h, starting pH 4.45) was 4.54 and the “pH of about 0.48M LDEE•HCl Solution” value ([1]; 6 h, starting pH 4.59) was 4.6. For the same molecule, the “pH of about 0.95M LDEE•HCl Solution” value ([1]; 6 h, starting pH 4.6) was 4.53, the “pH of about 0.48M LDEE•HCl Solution” value ([1]; 6 h, starting pH 4.78) was 4.71 and the “pH of about 0.95M LDEE•HCl Solution” value ([1]; 6 h, starting pH 4.82) was 4.69. For the same molecule, the “pH of about 0.48M LDEE•HCl Solution” value ([1]; 6 h, starting pH 5.01) was 4.9, the “pH of about 0.95M LDEE•HCl Solution” value ([1]; 6 h, starting pH 5.01) was 4.84 and the “pH of about 0.95M LDEE•HCl Solution” value ([1]; 6 h, starting pH 5.3) was 5.21. The “pH of about 0.48M LDEE•HCl Solution” value ([1]; 6 h, starting pH 5.31) was 5.23, the “pH of about 0.95M LDEE•HCl Solution” value ([1]; 6 h, starting pH 5.6) was 5.53 and the “pH of about 0.48M LDEE•HCl Solution” value ([1]; 6 h, starting pH 5.61) was 5.53. The “pH of about 0.95M LDEE•HCl Solution” value ([1]; 24 h, starting pH 4.2) was 3.86, the “pH of about 0.95M LDEE•HCl Solution” value ([1]; 24 h, starting pH 4.4) was 4.03 and the “pH of about 0.48M LDEE•HCl Solution” value ([1]; 24 h, starting pH 4.45) was 4.19. For the same molecule, the “pH of about 0.48M LDEE•HCl Solution” value ([1]; 24 h, starting pH 4.59) was 4.32, the “pH of about 0.95M LDEE•HCl Solution” value ([1]; 24 h, starting pH 4.6) was 4.22 and the “pH of about 0.48M LDEE•HCl Solution” value ([1]; 24 h, starting pH 4.78) was 4.52. For the same molecule, the “pH of about 0.95M LDEE•HCl Solution” value ([1]; 24 h, starting pH 4.82) was 4.36, the “pH of about 0.48M LDEE•HCl Solution” value ([1]; 24 h, starting pH 5.01) was 4.6 and the “pH of about 0.95M LDEE•HCl Solution” value ([1]; 24 h, starting pH 5.01) was 4.58. The “pH of about 0.95M LDEE•HCl Solution” value ([1]; 24 h, starting pH 5.3) was 4.8, the “pH of about 0.48M LDEE•HCl Solution” value ([1]; 24 h, starting pH 5.31) was 4.91 and the “pH of about 0.95M LDEE•HCl Solution” value ([1]; 24 h, starting pH 5.6) was 5.19. For the same molecule, the “pH of about 0.48M LDEE•HCl Solution” value ([1]; 24 h, starting pH 5.61) was 5.23, the “pH after 24 hours” value ([1]; about 2.6 M, starting pH 2.1, 23±2° C.) was 2.0 and the pH ([1]; start pH about 4.49, 24 h at 40° C.) was 4.2. The pH ([1]; start pH about 4.49, 48 h at 40° C.) was 4.0, the nodule formation (volunteer) was “nor did it cause the formation of a nodule” and the “appearance of infused solution after storage” value ([2]; citrate pH 4.5, 2.5 days at room temperature and 7 weeks in a refrigerator) was “colorless and clear”. The “appearance of infused solution after storage” value ([2]; citrate pH 4.5, about 3 days at room temperature and about 3 months in a refrigerator) was “colorless and clear”, the “precipitation of LD” value ([2]; about 0.7 M LDEE + LDEE.HCl, pH about 6.87, 37° C., 3 hours) was “no precipitation” and the “precipitation of LD” value ([2]; about 0.7 M LDEE + LDEE.HCl, pH about 6.87, 37° C., 16 hours) was “extensive precipitation of LD”. The “precipitation of LD” value ([2]; about 1.3 M LDEE + LDEE.HCl, pH about 6.75, 37° C., 3 hours) was “no precipitation”, the “precipitation of LD” value ([2]; about 1.3 M LDEE + LDEE.HCl, pH about 6.75, 37° C., 16 hours) was “extensive precipitation of LD” and the “concentration of aqueous solutions allowed by solubility” value ([3]; aqueous solution) was “greater than 2.5 M”. The “concentration of clear solution (high solubility)” value ([3]; pH 4.60 (sodium acetate), ambient about 23±2° C.) was “about 2.5 M”, the “projected storage (shelf) life” value ([4]; 2.5 M solution at 4° C. (per Example 18)) was “greater than 4 years” and the projected shelf life ([4]; 2.5 M solution, pH 2.3, about 4° C.) was “about 4.7 years”. The “operational life (time to LD saturation)” value ([4]; 2.5 M, pH 4.5 citrate, 29° C.-30° C.) was 4 days, the “operational life, projection” value ([4]; 2.5 M, pH 4.5 citrate, 37° C. body temperature) was “about 2 days” and the “operational life (time to LD saturation)” value ([4]; 2.5 M, pH 4.5 citrate, about 23° C.) was “about 9 days”. The “storage time without LD precipitation” value ([4]; pH 2.5±0.5, about 5±3° C.) was “about 3 years”, the “storage time without LD precipitation” value ([4]; pH about 1.5 to about 3.5, about 5±3° C.) was “more than 1 year” and the “% of the LDEE.HCl hydrolyzed at which LD saturation is reached” value ([4]; 2.7 M LDEE.HCl, LD saturation about 17 grams per liter) was “about 3.4%”. For the same molecule, the “Estimated pH 2.3 storage life at 4° C.” value ([4]; about 2.0 M LDEE.HCl solution) was 50 months, the “Estimated pH 2.3 storage life at 25° C.” value ([4]; about 2.0 M LDEE.HCl solution) was 2 months and the “Estimated pH 4.5 operational life at 30° C.” value ([4]; about 2.0 M LDEE.HCl solution) was 4 days. The “Estimated pH 4.5 operational life at 37° C.” value ([4]; about 2.0 M LDEE.HCl solution) was 2 days, the operational life ([4]; about 2.7 M, about pH 4.49, 40° C.) was > 48 h and the residual operational life ([4]; after 18 months at 4° C., then operational ambient temperature) was “more than 3 days”. The “time remaining precipitate free” value ([4]; pH raised to about 4.2±0.3, 30° C.) was “more than 3 days”, the “time remaining precipitate free” value ([4]; pH raised to about 4.2±0.3, 37° C.) was “more than 2 days” and the residual operational life ([4]; after one year at 4° C., then 23° C. ambient) was “greater than 4 days”. For the same molecule, the “projected time free of LD precipitate” value ([4]; refrigerated pH 4.0 solution, 2.4 M) was “about 50 weeks”.
